ChEMBL document CHEMBL1201862, “PubChem BioAssay data set” (2004)
Several values for one entry are separate records, joined by “and”; a condition that tells them apart may be missing. Equal values may be shown once. Activity calls are given as the source filed them. For most assays here, no stated cut-off is given here; in the data, actives have a measured EC50 and inactives only a lower limit.

Assays:
[1] = tested on: Streptococcus sp. 'group A'; assay: Streptococcus pyogenes SK(-)GAS viability under kanamycin – luminescence, BacTiterGlo, confirmation, counter-screen for streptokinase expression inhibitor project, dose response (AID 1900); assay type: functional, organism-based
Streptococcus = assay: GAS UMAA2166 growth inhibition – luminescence, BacTiterGlo, counter-screen for streptokinase expression inhibitor project, dose response (AID 1915); assay type: functional, organism-based;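 further: potency for reduction of bacterial viability or growth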
Streptokinase A = molecular target: T1, Streptokinase A (Streptococcus pyogenes serotype M1, UniProt P10520); assay: viability-normalized secreted streptokinase activity reduction – plasminogen activation absorbance, OD405, dose response (AID 1914); assay type: functional, Streptococcus pyogenes M1 GAS;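 further: secreted streptokinase activity via plasminogen activation per viability signal from cell pellet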
T1 sequence (P10520 whole entry): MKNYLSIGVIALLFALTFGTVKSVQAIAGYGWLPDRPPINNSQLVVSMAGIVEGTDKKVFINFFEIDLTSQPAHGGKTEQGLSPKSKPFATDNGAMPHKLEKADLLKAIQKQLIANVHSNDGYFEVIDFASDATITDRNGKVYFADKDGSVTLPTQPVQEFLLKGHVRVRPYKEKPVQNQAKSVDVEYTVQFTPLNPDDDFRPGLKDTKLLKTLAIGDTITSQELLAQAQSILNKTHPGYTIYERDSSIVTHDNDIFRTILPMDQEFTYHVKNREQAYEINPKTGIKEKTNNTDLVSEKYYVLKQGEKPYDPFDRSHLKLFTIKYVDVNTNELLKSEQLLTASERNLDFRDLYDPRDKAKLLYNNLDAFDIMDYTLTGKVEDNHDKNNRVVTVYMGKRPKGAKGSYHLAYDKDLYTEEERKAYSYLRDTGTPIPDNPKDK

INS1 = assay: INS-1E survival protection against cytokine death – cell-based, luminescence, retest, dose response (AID 449756); assay type: functional; conditions: Rattus norvegicus;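 further: cell death triggered by IL-1 beta plus TNF-alpha plus IFN-gamma mixture; protective hits raise ATP signal compared with cytokine alone wells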
[2] = Trypanosoma cruzi growth suppression in host cells – NIH3T3 host cells, beta-gal luminescence, confirmation (AID 2044); assay type: functional, cell-based;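 further: intracellular parasites grown in NIH/3T3 mouse fibroblasts as host cells; luminescent beta-galactosidase reporter signal from transgenic T. cruzi replicating inside host cells; inhibitors lower the luminescence signal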
[3] = NIH3T3 cell viability loss – ATP luminescence, mouse fibroblasts, counter-screen, dose response (AID 2010); assay type: functional, cell-based;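 further: cells exposed to compound for about 90 hours before reading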
[4] = molecular target: T2, Heat shock factor protein 1 (Mus musculus, UniProt P38532); assay: decrease of HSF1-responsive luciferase luminescence – cell-based, NIH3T3, dose retest, confirmation (AID 2382); assay type: functional;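 further: NIH3T3 fibroblasts with HSF1-driven luciferase reporter stressed by proteasome inhibitor MG132; luminescence from HSF1-driven luciferase expression after 8 hours of MG132 stress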
T2 sequence (P38532 whole entry): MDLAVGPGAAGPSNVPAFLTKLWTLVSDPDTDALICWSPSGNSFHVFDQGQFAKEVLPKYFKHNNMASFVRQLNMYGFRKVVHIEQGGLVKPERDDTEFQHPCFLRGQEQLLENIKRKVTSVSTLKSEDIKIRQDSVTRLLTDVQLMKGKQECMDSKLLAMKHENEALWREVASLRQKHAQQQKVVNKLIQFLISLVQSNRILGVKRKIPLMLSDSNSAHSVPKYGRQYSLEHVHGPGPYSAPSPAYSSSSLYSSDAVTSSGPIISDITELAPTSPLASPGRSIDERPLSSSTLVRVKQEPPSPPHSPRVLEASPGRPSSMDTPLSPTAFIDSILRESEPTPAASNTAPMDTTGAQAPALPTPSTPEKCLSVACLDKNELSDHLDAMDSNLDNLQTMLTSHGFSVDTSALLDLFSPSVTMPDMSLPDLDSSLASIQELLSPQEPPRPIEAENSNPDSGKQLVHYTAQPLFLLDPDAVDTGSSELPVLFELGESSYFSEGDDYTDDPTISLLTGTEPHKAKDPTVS

Cytochrome P450 3A4 = Cytochrome P450 3A4 (Homo sapiens, UniProt P08684);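 further: CYP3A4 tested as one member of a cytochrome P450 panel screen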
[5] = viability of uninfected HEp-2 cells – cell-based, HTS, cytotoxicity control for RSV inhibitor project, dose response (AID 2410); assay type: functional; conditions: human respiratory syncytial virus

Cytochrome P450 3A4, sequence (P08684 whole entry): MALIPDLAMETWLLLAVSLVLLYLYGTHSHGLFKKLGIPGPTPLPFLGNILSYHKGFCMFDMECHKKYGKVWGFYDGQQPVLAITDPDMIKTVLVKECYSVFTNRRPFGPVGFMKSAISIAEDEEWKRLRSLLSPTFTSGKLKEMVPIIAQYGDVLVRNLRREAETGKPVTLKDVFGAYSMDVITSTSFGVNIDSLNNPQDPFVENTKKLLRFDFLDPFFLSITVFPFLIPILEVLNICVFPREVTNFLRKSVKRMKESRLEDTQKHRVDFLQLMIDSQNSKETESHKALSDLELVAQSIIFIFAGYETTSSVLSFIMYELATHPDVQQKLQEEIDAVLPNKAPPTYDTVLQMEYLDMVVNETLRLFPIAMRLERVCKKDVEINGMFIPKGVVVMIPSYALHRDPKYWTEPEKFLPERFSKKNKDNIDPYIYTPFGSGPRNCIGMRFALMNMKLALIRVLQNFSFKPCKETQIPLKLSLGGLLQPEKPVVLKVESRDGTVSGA

COc1ccccc1OCC(=O)Nc1c2c(nn1-c1ccc(F)cc1)CS(=O)(=O)C2
EC50 [1]: > 150 µM (not active)
EC50 (Streptococcus): > 150 µM (not active)
EC50 (Streptokinase A): > 150 µM (not active)

O=c1[nH]c(NCCCO)nc2c1C1(CCCC1)Cc1ccccc1-2
AC50 (INS1): > 260 µM (inactive)

CCNC(=O)NC(=O)c1csc([N+](=O)[O-])c1
EC50 [2]: 0.415 µM (active)
EC50 [3]: > 30 µM (not active)

O=C(CN1CC=C(c2ccccc2)CC1)NC(=O)NCc1ccccc1
EC50 [4]: > 195 µM (not active)

O=C(CN(C(=O)Cn1nnc(-c2ccccc2F)n1)c1cccc2c1CCCC2)NCc1ccccc1
EC50 [1]: 11.2 µM (active)
EC50 (Streptococcus): > 150 µM (not active)
EC50 (Streptokinase A): > 150 µM (not active)

CCc1c(C)nc2cc(-c3ccc(OC)c(OC)c3)nn2c1N1CCC(C)CC1
EC50 [1]: 5.05 µM (active)
EC50 (Streptococcus): 14.7 µM (active)
EC50 (Streptokinase A): 16.6 µM (active)

Cc1ccc(-n2c(O)cnc2Nc2nc(C)cc(C)n2)cc1
AC50 (Cytochrome P450 3A4): 31.6 µM (inconclusive)

CCOc1cc(C(=O)NCc2ccccc2)ccc1OCC(=O)N1CCOCC1
EC50 [4]: > 195 µM (not active)

O=C(Nc1ccccc1N1CCCC1)C1CCN(S(=O)(=O)c2ccccc2C(F)(F)F)CC1
CC50 [5]: > 50 µM (active)

COc1ccc(OC)c(C2/C(=C(\O)c3ccccc3)C(C)=Nc3nc4ccccc4n32)c1 (configuration not stated)
EC50 [2]: 1.51 µM (active)
EC50 [3]: > 60 µM (not active)

CO[C@H]1COC(=O)C/C=C\[C@@H](C)COC(=O)[C@@H](CCSC)NC(=O)C/C=C\[C@@H]1C
AC50 (Cytochrome P450 3A4): 3.98 µM (inconclusive) and 5.01 µM (inconclusive)

O=C(CCc1nnc2ccc(N3CCC4(CC3)OCCO4)nn12)NCc1ccc(F)cc1
EC50 [4]: > 195 µM (not active)

Cc1ccc([C@@H](O)c2cnc(C)n2Cc2ccccc2)cc1
AC50 (Cytochrome P450 3A4): 5.01 µM (inconclusive)

CCOC(=O)N1CCN(CC(O)COCCC23CC4CC(CC(C4)C2)C3)CC1 (configuration not stated)
EC50 [2]: 1.16 µM (active)
EC50 [3]: > 30 µM (not active)

CCOP(=O)(OCC)c1nc(-c2cccc3ccccc23)oc1NCc1ccc(OC)cc1
EC50 [2]: 2.45 µM (active)
EC50 [3]: > 60 µM (not active)

N=C(NOC(=O)c1cccc(Cn2cc(C(F)(F)F)ccc2=O)c1)c1ccc(Cl)cc1
AC50 (INS1): 12.4 µM (active)

C=CCn1c(SCN2C(=O)c3ccccc3C2=O)nc2ccc(Cl)cc2c1=O
AC50 (INS1): 7.25 µM (active)

CC1(C(=O)OCC(=O)Nc2nc(-c3ccc(F)c(F)c3)cs2)CC1(Cl)Cl (configuration not stated)
EC50 [1]: 8.61 µM (active)
EC50 (Streptococcus): 11.8 µM (active)
EC50 (Streptokinase A): 7.2 µM (active)

CCCC(=O)NC(N=C(S)Nc1ccc(N=Nc2ccccc2)cc1)C(Cl)(Cl)Cl (configuration not stated)
AC50 (INS1): 5.34 µM (active)

NC(=O)COC(=O)c1ccccc1Oc1ccccc1
EC50 [4]: > 195 µM (not active)

COc1ccc(C(=O)N(C)c2ccccc2C(=O)NCCc2ccccc2)cc1
AC50 (INS1): 4.32 µM (active)

COCC(=O)N1CCC[C@@]2(CCN(Cc3ccccc3)C2)C1
AC50 (Cytochrome P450 3A4): 25.1 µM (inconclusive)

COc1ccc(N2C(=O)CC(c3ccc(OC(C)C)cc3)C2=O)cc1 (configuration not stated)
EC50 [4]: > 195 µM (not active)

CCOC(=O)CSc1ccc(C(=O)NCCCN2CCOCC2)cc1[N+](=O)[O-]
EC50 [4]: > 195 µM (not active)

CN1/C(=C\C(=O)Nc2ccc(Cl)cc2)C(C)(C)c2ccccc21
EC50 [1]: 9.32 µM (active)
EC50 (Streptococcus): 11.5 µM (active)
EC50 (Streptokinase A): > 150 µM (not active)

CN(C)c1ccc(-c2nc(N3CCNCC3)c3ccccc3n2)cc1
AC50 (Cytochrome P450 3A4): 31.6 µM (inconclusive)

CCCCc1ccc(NC(S)=NCc2cccs2)cc1
EC50 [2]: 2.6 µM (active)
EC50 [3]: > 60 µM (not active)

O=C(O)CC1SC(=O)N(Cc2ccccc2)C1=O (configuration not stated)
EC50 [4]: > 195 µM (not active)

Cc1c(C(=O)NCc2ccc3c(c2)OCO3)sc2nc(-c3ccccc3)cn12
EC50 [4]: > 195 µM (not active)

Cc1ccc(NC(=O)CCN2CCCCC2)cc1
EC50 [4]: 4.53 µM (active)

CC(C)CN(C(=O)COC(=O)c1ccc([N+](=O)[O-])s1)c1c(N)n(Cc2ccccc2)c(=O)[nH]c1=O
EC50 [2]: 1.06 µM (active)
EC50 [3]: 4.8 µM (active)
